Results published in patent US7943793B2, “Optically active organic acidate-bridged dinuclear platinum(II) complex” (Osaka University, priority 2007, dated 2011).

Experiments:
Type in all cases: cell-based
39 kinds of cancer cells = test: In vitro cancer growth inhibitory activity, sulforhodamine B, panel of 39 cancer cell lines; conditions: average over 39 kinds of cancer cells, 2 days culture with sample
Experimental: The in vitro cancer growth inhibitory activity was assessed according to the method described in Jpn J Cancer Chemother, 24, 129 (1997) and Cancer Chemothr. Pharmacol., 52 Suppl 1, S74-79 (2003). Namely, a total of 39 different kinds of cancer cells at logarithmic growth phase were separately seeded into wells of 96 well plates, and incubated at 37° C. for 1 day. The cancer cells used were 5 kinds of breast cancer cells (HBC-4, BSY-1, HBC-5, MCF-7, MDA-MB-231), 6 kinds of glioma cancer cells (U251, SF-268, SF-295, SF-539, SNB-75, SNB-78), 5 kinds of colon cancer cells (HCC2998, KM-12, HT-29, HCT-15, HCT-116), 7 kinds of lung cancer cells (NCI-H23, NCL-H226, NCL-H522, NCL-H460, A549, DMS273, DMS114), 1 kind of melanoma cell (LOX-IMVI), 5 kinds of ovarian cancer cells (OVCAR-3, OVCAR-4, OVCAR-5, OVCAR-8, SK-OV-3), 2 kinds of renal cancer cells (RXF-631L, ACHN), 6 kinds of gastric cancer cells (St-4, MKN1, MKN7, MKN28, MKN45, MKN74), and 2 kinds of prostate cancer cells (DU-145, PC-3). Each sample solution was added to the wells on the following day, and culture was continued at 37° C. for another 2 days. Then, the degree of cell growth was determined by the colorimetric measurement using sulforhodamine B. The cancer growth inhibitory activity was assessed based on the average log GI50 (GI50 indicates the concentration required to inhibit 50% of cell growth) against 39 kinds of cancer cells.

lung cancer cell DMS273 = test: Cancer growth inhibitory activity, lung cancer cell DMS273; conditions: for Cancer growth inhibitory activity (average log GI50): lung cancer cell DMS273; for cancer growth inhibitory activity relative to oxaliplatin: lung cancer cells, higher than oxaliplatin
[1] = test system: renal cancer cell RXF631L; test: Cancer growth inhibitory activity, renal cancer cell RXF631L; conditions: for Cancer growth inhibitory activity (average log GI50): renal cancer cell RXF631L
[2] = test system: gastric cancer cell MKN-7; test: Cancer growth inhibitory activity, gastric cancer cell MKN-7; conditions: for Cancer growth inhibitory activity (average log GI50): gastric cancer cell MKN-7
colon cancer cell HT-29 = test: Cancer growth inhibitory activity, colon cancer cell HT-29; conditions: for Cancer growth inhibitory activity (average log GI50): colon cancer cell HT-29; for cancer growth inhibitory activity relative to oxaliplatin: colon cancer cells, stronger than oxaliplatin

Compound	Cancer growth inhibitory activity (average log GI50) (39 kinds of cancer cells)	Cancer growth inhibitory activity (average log GI50) (lung cancer cell DMS273)	cancer growth inhibitory activity relative to oxaliplatin (lung cancer cell DMS273)	Cancer growth inhibitory activity (average log GI50) [1]	cancer growth inhibitory activity relative to oxaliplatin ([1]; renal cancer cells, stronger than oxaliplatin)	Cancer growth inhibitory activity (average log GI50) [2]	cancer growth inhibitory activity relative to oxaliplatin ([2]; gastric cancer cells, stronger than oxaliplatin)	Cancer growth inhibitory activity (average log GI50) (colon cancer cell HT-29)	cancer growth inhibitory activity relative to oxaliplatin (colon cancer cell HT-29)
L-tartrate-bridged dinuclear 1S,2S-1,2-trans-cyclohexanediamine platinum(II) complex nitrate [[{Pt(S,S-dach)}2(μ-L-tartH)]NO3•4H2O]	−5.36								
N[C@@H]1CCCC[C@H]1N.N[C@@H]1CCCC[C@H]1N.O.O.O.O.O=C([O-])[C@@H](O)[C@H](O)C(=O)[O-].O=[N+]([O-])[O-].[Pt+2].[Pt+2] (relative stereo) [[{Pt(R,R-dach)}2(μ-D-tartH)]NO3•4H2O, D-tartrate-bridged dinuclear 1R,2R-1,2-trans-cyclohexanediamine platinum(II) complex nitrate]		−7.46	about 20 times	−6.03	about 100 times	−6.02	about 10 times	−5.96	about 10 times
L-tartrate-bridged dinuclear 1R,2R-1,2-trans-cyclohexanediamine platinum(II) complex nitrate [[{Pt(R,R-dach)}2(μ-L-tartH)]NO3•4H2O]	−5.99	−7.31	about 20 times	−4.92		−4.98		−7.00	about 100 times
O=C1[O][Pt-2]2([NH2+]C3CCCC[C@H]3[NH2+]2)[O]C1=O (stereo partly drawn) [Oxaliplatin, oxalato(1R,2R-1,2-cyclohexanediamine)platinum(II), reference compound]	−5.03	−6.06		−4.13		−4.68		−4.91	
